{"source": "patent US12121518B2", "about": "“PARP-1 and methods of use thereof” (The Board of Supervisors of Louisiana State University and …, priority 2017, dated 2024)", "key": {"[1]": {"test_system": "trinitrobenzene sulfonic acid-induced colitis", "settings": "in vivo; cited from earlier work"}, "[2]": {"test_system": "steroid-resistant leukemia cells", "assay": "Steroid-resistant leukemia cells: cell killing and NOTCH levels", "assay_type": "cell-based", "settings": "GSI alone: 1 nM PF-3084014 or 25 nM BMS-906024"}, "[3]": {"settings": "20-30 μM; cited from earlier work"}, "ARG-1, iNOS, COX2": {"test_system": "ARG-1, iNOS, COX2", "assay": "Immunoblot of ARG-1, iNOS, COX2 and related factors in bone marrow-derived MDSCs", "assay_type": "cell-based, mouse", "settings": "day 2 to day 4 of differentiation", "source_text": "(I) Positive control for PARP-1 trapping.\nCell fractionation, protein extraction and immunoblot analysis—Tumor tissues or cells were harvested and homogenized in RIPA lysis buffer (Santa Cruz Biotechnology) containing a cocktail of protease and phosphatase inhibitors on ice. Nuclear fractions were isolated as described (35) and the remaining chromatin pellets were washed then suspended in an isotonic buffer followed by sonication. […] Protein expression signals developed by ECL (Pierce, ThermoFisher Scientific) were determined by a G:Box Gel Image Analysis System (Syngene, Cambridge, UK) equipped with the GeneSys image capture software."}, "[4]": {"test_system": "bone marrow-derived MDSCs", "assay": "Bone marrow-derived MDSC differentiation in vitro: viability and CD11b/Gr1 phenotype by FACS", "settings": "1 μM"}, "[5]": {"settings": "in vivo; cited from earlier work"}}, "data": [{"smiles": "NC(=O)c1cccc(N)c1", "note": "[3-aminobenzamide]", "values": [{"measurement": "colitis", "setting": "[1]", "value": "protection"}]}, {"smiles": "CN1C(=O)[C@@H](NC(=O)[C@H](CCC(F)(F)F)[C@H](CCC(F)(F)F)C(N)=O)N=C(c2ccccc2)c2ccccc21", "note": "[BMS-906024]", "values": [{"measurement": "NOTCH1 levels or cell proliferation of leukemia cells", "setting": "[2]", "value": "do not have major effects"}]}, {"smiles": "CCC[C@H](N[C@H]1CCc2cc(F)cc(F)c2C1)C(=O)Nc1cn(C(C)(C)CNCC(C)(C)C)cn1", "note": "[PF-3084014]", "values": [{"measurement": "NOTCH1 levels or cell proliferation of leukemia cells", "setting": "[2]", "value": "do not have major effects"}]}, {"smiles": "O=c1[nH]c2sccc2c2ccccc12", "note": "[TIQ-A]", "values": [{"measurement": "cytotoxicity", "setting": "[3]", "value": "cytotoxic"}]}, {"smiles": "NC(=O)c1cccc2cn(-c3ccc([C@@H]4CCCNC4)cc3)nc12", "note": "[niraparib]", "values": [{"measurement": "expression of Arg1 in BM-MDSCs", "setting": "ARG-1, iNOS, COX2; 4 nM", "value": "blocked expression of Arg1"}]}, {"smiles": "CNCc1ccc(-c2[nH]c3cc(F)cc4c3c2CCNC4=O)cc1", "note": "[rucaparib]", "values": [{"measurement": "MDSC population (CD11b+/Gr1+) at day 4", "setting": "[4]", "value": "appears to increase MDSC population"}, {"measurement": "expression of Arg1 in BM-MDSCs", "setting": "ARG-1, iNOS, COX2; 4 nM", "value": "blocked expression of Arg1"}]}, {"smiles": "Cn1ncnc1[C@H]1c2n[nH]c(=O)c3cc(F)cc(c23)N[C@@H]1c1ccc(F)cc1", "note": "[talazoparib]", "values": [{"measurement": "maximum tolerated dose", "setting": "[5]", "value": 1, "unit": "mg/day"}, {"measurement": "expression of Arg1 in BM-MDSCs", "setting": "ARG-1, iNOS, COX2; 0.4 nM", "value": "blocked expression of Arg1"}]}, {"smiles": "C[C@]1(c2nc3c(C(N)=O)cccc3[nH]2)CCCN1", "note": "[velaparib]", "values": [{"measurement": "expression of Arg1 in BM-MDSCs", "setting": "ARG-1, iNOS, COX2; 4 nM", "value": "blocked expression of Arg1"}]}]}
